Assay results as given in US10398142B2, “Polycationic amphiphiles as antimicrobial agents” (priority 2013, dated 2019).
Read-outs that look alike come from different tables or passages of the source. Marks after values point to notes of the source that are not given here.

What was measured:
[1] = system: S. aureus (MSSA, SH1000) biofilms; assay: Minimum biofilm eradication concentration (MBEC), regrowth assay; assay type: cell-based, Staphylococcus aureus; details: for MBEC MSSA: Table 5, SH1000
Text: (§1) A regrowth assay was used to establish the MBEC of a compound to evaluate the antibiofilm activity. See also H. Ceri, M. Olson, D. Morck, D. Storey, R. Read, A. Buret, B. Olson, Methods Enzymol. 2001, 337, 377.
(§2) Encouraged by the potency of the QACs against planktonic bacterial cells, the inventors then evaluated the efficacy of compound (12,2,12) against Staphylococcus aureus and Enterococcus faecalis biofilms. […] To both accurately evaluate the antibiofilm activity, a regrowth assay was utilized to establish the minimum biofilm eradication concentration (MBEC) of each compound.
(§3) Different biological assays were performed. For all biological assays, laboratory strains of methicillin-susceptible Staphylococcus aureus MSSA (SH1000), Enterococcus faecalis (OG1RF), Escherichia coli (MC4100), Pseudomonas aeruginosa (PAO1), community-acquired methicillin-resistant Staphylococcus aureus CA-MRSA (USA300-0114), and hospital-acquired methicillin-resistant Staphylococcus aureus HA-MRSA (ATCC 33591) were grown at 37° C. overnight from freezer stocks in 10 mL of the media indicated for each assay. All cultures, with the exception of E. faecalis, were grown with shaking at 250 rpm.
(§4) Minimum biofilm eradication concentration (MBEC) was also measured. To each well of a flat-bottomed 96-well plate (Corning 3370), 8 μL of overnight bacterial culture was brought to a volume of 200 μL with fresh media (BHI for S. aureus and MRSA, Todd Hewitt (TH) for E. faecalis). Plates were incubated statically for 24 hours at 37° C. to establish biofilms. After 24 hours, the wells were carefully emptied by inverting the plate and gently shaking. A pre-mixed solution of media and aqueous compound stock solution was added to each well and plates were incubated at 37° C. 16 hours after pre-established biofilms were treated with compound, the media from each well was removed, biofilms were washed three times with 200 μL PBS to remove planktonic cells, and biofilms were incubated overnight at 37° C. in 200 μL of fresh media to allow any viable cells to continue growing. The wells were then vigorously pipetted to resuspend the biofilm cells and the OD at 595 nm was measured using a plate reader (POLARstar Omega, BMG Labtech). Biofilms reaching a final OD of less than 0.1 were considered eradicated and the lowest concentration of antibiotic corresponded to the MBEC. Four replicates were completed for each concentration of compound as well as positive and negative controls.

[2] = system: CA-MRSA (USA300-0114) biofilms; assay: as above; assay type: cell-based, Staphylococcus aureus; details: for MBEC CA-MRSA: Table 5, USA300-0114
Protocol: as §1, §3, §4

CA-MRSA (USA300-0114) = assay: Minimum inhibitory concentration (MIC), broth microdilution; assay type: cell-based, Staphylococcus aureus
Protocol: (§5) Different biological assays were performed. […] All cultures, with the exception of E. faecalis, were grown with shaking at 250 rpm.
(§6) Minimum inhibitory concentration (MIC) values against bacteria were measured using standard method. Compounds were serially diluted two-fold from an aqueous stock solution to yield twelve test concentrations. Overnight S. aureus, E. faecalis, E. coli, P. aeruginosa, CA-MRSA, and HA-MRSA cultures diluted to ca. 10^6 cfu/mL in Mueller-Hinton media and 100 μL were inoculated into each well of a U-bottom 96-well plate (BD Biosciences, BD351177) containing 100 μL of compound solution. Plates were incubated statically at 37° C. for 72 hours upon which time wells were evaluated visually for bacterial growth. The MIC was determined as the lowest concentration of compound resulting in no bacterial growth visible to the naked eye, based on the majority of three independent experiments. Positive and negative aqueous and media controls were conducted for each trial.

HA-MRSA (ATCC 33591) = assay: as above; assay type: cell-based, Staphylococcus aureus
Protocol: as §5, §6

[3] = system: red blood cells (defibrinated sheep blood); assay: Hemolysis assay (Lysis20); details: Table 4; concentration at which less than 20% of red blood cells are lysed
Protocol: Hemolysis assays (Lysis20) were performed according to the procedure detailed in Peng, L., DeSousa, J., Su, Z., Novak, B. M., Nevzorov, A. A., Garland, E. R., and Melander, C., Inhibition of Acinetobacter baumannii biofilm formation on a methacrylate polymer containing a 2-aminoimidazole subunit, Chem. Comm. 2011, 47, 4896-4898. Defibrinated sheep blood was purchased from Hemostat Labs (DSB 100). Compounds representative of each class were serially diluted in sterile PBS from aqueous stock solutions and incubated with resuspended blood cells. The OD of the final suspensions were measured directly using plate reader. TritonX (1% by volume) served as a positive control (100% lysis marker) and sterile PBS served as a negative control (0% lysis marker).
Lysis20 indicates the concentration of compound (in μM) at which less than 20% of red blood cells are lysed.

E. faecalis biofilms = assay: Minimum biofilm eradication concentration (MBEC), regrowth assay; assay type: cell-based, Enterococcus faecalis
Text: as §1, §2, §3, §4

[4] = system: Enterococcus faecalis (OG1RF); assay: Minimum inhibitory concentration (MIC), broth microdilution; assay type: cell-based; details: read-out: MIC E. faecalis
In short: (§7)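 Broth microdilution: two-fold serial dilutions (twelve concentrations) mixed 1:1 with overnight cultures diluted to ca. 10^6 cfu/mL in Mueller-Hinton media, incubated statically at 37° C for 72 hours. MIC is lowest concentration with no growth visible to the naked eye, majority of three independent experiments.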

[5] = system: Escherichia coli (MC4100); assay: as above; assay type: cell-based; details: read-out: MIC E. coli
In short: as §7

[6] = system: Pseudomonas aeruginosa (PAO1); assay: as above; assay type: cell-based; details: read-out: MIC P. aeruginosa
In short: as §7

[7] = system: Staphylococcus aureus MSSA (SH1000); assay: as above; assay type: cell-based
In short: as §7

[8] = Table 2, pre-established biofilm, ± values varied between 50 and 100 μM for the six trials
[9] = Table 4, USA300-0114, read-out: MIC CA-MRSA
[10] = Table 4, ATCC 33591, read-out: MIC HA-MRSA
[11] = Table 1, read-out: MIC S. aureus
[12] = Table 3, read-out: MIC S. aureus
[13] = Table 4, SH1000, read-out: MIC MSSA
[14] = table for compound (12,3,11-SH,3,12)

Structure (SMILES)	MBEC MSSA [1] [µM]	MBEC CA-MRSA [2] [µM]	MIC (CA-MRSA (USA300-0114); [9]) [µM]	MIC (HA-MRSA (ATCC 33591); [10]) [µM]	Lysis20 [3] [µM]	MBEC E. faecalis (E. faecalis biofilms; Table 5) [µM]	MIC ([4]; Table 3) [µM]	MIC ([5]; Table 3) [µM]	MIC ([6]; Table 3) [µM]	MIC [7, 12] [µM]	MIC [7, 13] [µM]	further results
CCCCCCCCCCCC[N+](C)(C)CCN(C)CC[N+](C)(C)CCCCCCCCCCCC.[Br-].[Br-] [12,2,0,2,12]	75 ± 25	100	1	0.5	8	100	1	2	4	1	1	MBEC S. aureus [1, 8]: 75 ± 25^a μM; MBEC E. faecalis (E. faecalis biofilms; [8]): 100 µM; MIC ([4]; Table 1): 2 µM; MIC ([5]; Table 1): 1 µM; MIC ([6]; Table 1): 4 µM; MIC [7, 11]: 1 µM
CCCCCCCCCCCC[N+](C)(C)CCC[N+](C)(CCCC)CCC[N+](C)(C)CCCCCCCCCCCC.[Br-].[Br-].[Br-] [12,3,4,3,12]	75 ± 25	75 ± 25	0.5	0.5	8	50	1	1	2	1	1	
C=CC[N+](C)(CCC[N+](C)(C)CCCCCCCCCCCC)CCC[N+](C)(C)CCCCCCCCCCCC.[Br-].[Br-].[Br-] [12,3,3A,3,12]	50	100	1	1	8	75 ± 25	2	2	4	1	1	
CCCCCCCCCCCCCCCC[N+](C)(C)CCCCC[N+](C)(C)CCCCCCCCCCCCCCCC.[Br-].[Br-] [16,5,16]	200	>200	8	1	4	≥200	2	16	32	2	2	
CCCCCCCCCCCC[N+](C)(C)CCC[N+](C)(CCC[N+](C)(C)CCCCCCCCCCCC)Cc1ccccc1.[Br-].[Br-].[Br-] [12,3,Bn,3,12]	100	200	1	1	8	100	1	1	2	1	2	
CCCCCCCCCCCC[N+](C)(C)CCCCC[N+](C)(C)CCCCCCCCCCCC.[Br-].[Br-] [12,5,12]	50	100	1	0.5	8	100	1	1	2	2	2	MBEC S. aureus [1, 8]: 75 ± 25^a μM; MBEC E. faecalis (E. faecalis biofilms; [8]): 75 ± 25^a μM; MIC ([4]; Table 1): 1 µM; MIC ([5]; Table 1): 1 µM; MIC ([6]; Table 1): 4 µM; MIC [7, 11]: 1 µM
C=CC[N+](C)(CC[N+](C)(C)CCCCCCCCCCCC)CC[N+](C)(C)CCCCCCCCCCCC.[Br-].[Br-].[Br-] [12,2,3A,2,12]	50	100	1	1	2	75 ± 25	2	2	4	2	2	
CCCCCCCCCCCC[N+](C)(C)CC[CH-][N+](C)(CCCCCCCCCCCS)CCC[N+](C)(C)CCCCCCCCCCCC (stereo not drawn) [12,3,11-SH,3,12]	200	>200			16	>200						MBEC S. aureus [1, 14]: 200 µM; MBEC USA300-0114 [2, 14]: >200 µM; MIC (CA-MRSA (USA300-0114); Staphylococcus aureus, Table 4, USA300-0114, read-out: MIC CA-MRSA): 2 µM; MIC (CA-MRSA (USA300-0114); Staphylococcus aureus, table for compound (12,3,11-SH,3,12), read-out: MIC USA300-0114): 2 µM; MIC (HA-MRSA (ATCC 33591); Staphylococcus aureus, Table 4, ATCC 33591, read-out: MIC HA-MRSA): 2 µM; MIC (HA-MRSA (ATCC 33591); Staphylococcus aureus, table for compound (12,3,11-SH,3,12), read-out: MIC ATCC 33591): 2 µM; MBEC E. faecalis (E. faecalis biofilms; [14]): >200 µM; MIC ([4]; Enterococcus faecalis, table for compound (12,3,11-SH,3,12)): 2 µM; MIC ([5]; Escherichia coli, table for compound (12,3,11-SH,3,12)): 2 µM; MIC ([6]; Pseudomonas aeruginosa, PAO1, table for compound (12,3,11-SH,3,12)): 8 µM; MIC ([7]; Staphylococcus aureus, MSSA, Table 4, SH1000, read-out: MIC MSSA): 2 µM; MIC ([7]; Staphylococcus aureus, MSSA, table for compound (12,3,11-SH,3,12), read-out: MIC S. aureus): 2 µM
